Results on 52 compounds are retold here after PubChem BioAssay AID1996.

As a reminder, the solubility (kinetic) is solubility judged after dilution from a stock solution rather than from solid.

Values after ≈ are worked out from the molar mass of the structure shown. Residues, ends and D or L forms follow the SMILES beside them. Some results are limits rather than exact numbers.

For this series the following is noted: buffer; pH 7.4; 200.0 µM.
`CC(=O)Nc1ccc(S(=O)(=O)N(C)CC(=O)NCCOc2ccccc2)cc1` gave a solubility (kinetic) above 60.8 µg/mL.

Compound `CN(C(=O)CN1C(=O)c2ccccc2S1(=O)=O)C1CCCCC1` showed a kinetic solubility above 50.5 µg/mL.

`COc1ccc(F)cc1S(=O)(=O)NCCN1CCOCC1` showed a kinetic solubility above 47.8 µg/mL.

Turning to `O=C1OCc2ccc(NC(=O)c3sccc3Cl)cc21`, the solubility (kinetic) was below 0.6 µg/mL.

In turn, `c1ccc(-c2noc(C3CCC3)n2)nc1` yielded a kinetic solubility of 20.6 µg/mL (≈ 102 µM).

With `COc1ccccc1CN(C)C(=O)c1cc2ccccc2o1`, the solubility (kinetic) amounted to 28.7 µg/mL (≈ 97.2 µM).

`O=C(Cc1ccc(Br)cc1)NCc1ccccc1` yielded a solubility (kinetic) of 4.1 µg/mL (≈ 13.5 µM).

For `c1ccc(SSc2ccccn2)nc1`, the solubility (kinetic) amounted to 25.5 µg/mL (≈ 116 µM).

In the case of `Br.Clc1ccccc1CNCC1CCCO1` (configuration not stated), the solubility (kinetic) was 41 µg/mL.

`COc1ccc(-n2c(O)c(C(C)=NCC3CCCO3)c(=O)[nH]c2=O)cc1` (configuration not stated) had a solubility (kinetic) of 51.5 µg/mL (≈ 143 µM).

In turn, `Nc1nc(Nc2cccc(Cl)c2)nc(NCc2ccco2)c1[N+](=O)[O-]` gave a solubility (kinetic) of 3 µg/mL (≈ 8.32 µM).

For `CCCCCCCCCCCCN1C(=O)CSC1c1cccnc1` (configuration not stated), the kinetic solubility was below 0.4 µg/mL.

As for `CCCn1nc(Oc2nc(N(C)C)nc(N(C)C)n2)ccc1=O`, the kinetic solubility was above 47.9 µg/mL.

In the case of `CC(OCC(O)CN1CCCCC1CCO)c1ccc(Cl)cc1` (configuration not stated), the kinetic solubility is 42.2 µg/mL (≈ 123 µM).

`Clc1ccccc1C(c1ccccc1)(c1ccccc1)n1ccnc1` yielded a kinetic solubility of 3.7 µg/mL (≈ 10.7 µM).

Take `Cc1cccc(C)c1OCC1CNC(=O)O1` (configuration not stated): the solubility (kinetic) came to 24.8 µg/mL (≈ 112 µM).

In turn, `COc1ccc(C(=O)OCC(=O)c2c(N)n(C)c(=O)n(C)c2=O)c(OC)c1OC` came in with a kinetic solubility above 61.1 µg/mL.

With `Cc1ccc(S(=O)(=O)Nc2cccnc2)cc1C`, the kinetic solubility worked out at 10.7 µg/mL (≈ 40.8 µM).

As for `CC(=O)Nc1ccc(C(=O)COC(=O)Cc2ccsc2)c(F)c1`, the solubility (kinetic) was above 50.3 µg/mL.

In turn, `O=C(Cc1ccccc1)Oc1ccc([N+](=O)[O-])cc1` gave a solubility (kinetic) above 38.6 µg/mL.

As for `Cc1ccc2c(c1)C(=O)C(=O)N2CC1COc2ccccc2O1` (configuration not stated), the solubility (kinetic) is 19.5 µg/mL (≈ 63 µM).

`NS(=O)(=O)c1cccc(NC(=O)c2ccno2)c1` displayed a kinetic solubility above 40.1 µg/mL.

Turning to `CN1C(=O)/C(=C/c2ccc(OCc3cccc(F)c3)cc2)NC1=S`, the kinetic solubility is below 0.4 µg/mL.

`Cc1ccccc1NC(=O)Cn1c(=O)sc2ccccc21`: the kinetic solubility is 1.9 µg/mL (≈ 6.37 µM).

`O=C(O)CCN1CCc2ccccc2C1c1ccncc1` (configuration not stated) came in with a solubility (kinetic) above 42.4 µg/mL.

For the compound `COc1ccc2oc(=O)c(C(=O)Nc3cccc(C(C)=O)c3)cc2c1`, the solubility (kinetic) is below 0.7 µg/mL.

`O=[N+]([O-])c1ccc(S(=O)(=O)NCC2CC3CCC2C3)cc1` (configuration not stated): the solubility (kinetic) was 5.5 µg/mL (≈ 17.7 µM).

The compound `CCOc1ccc(C2CC(=O)NC2=O)cc1` (configuration not stated) returned a kinetic solubility above 32.9 µg/mL.

`Cc1cccc(N2C(=O)CN(Cc3cccs3)C2=S)c1`: the solubility (kinetic) is 4.6 µg/mL (≈ 15.2 µM).

For the compound `CCOc1ccc2nc(NC(=O)C3(C)CC3(Br)Br)sc2c1` (configuration not stated), the kinetic solubility stood at 8.4 µg/mL (≈ 19.3 µM).

`O=[N+]([O-])c1cccc2c(Cl)ccnc12` yielded a solubility (kinetic) above 31.3 µg/mL.

In turn, `O=C(NCCOc1ccccc1)c1ccccc1[N+](=O)[O-]` came in with a solubility (kinetic) above 42.9 µg/mL.

`O=C(COC(=O)c1ccccc1)NC(=O)NC1CCCC1` came in with a solubility (kinetic) of 23.8 µg/mL (≈ 82 µM).

With `CN(Cc1ccc2c(c1)OCCO2)C(=O)CN1C(=O)NC2(CCCCC2)C1=O`, the kinetic solubility worked out at 50.2 µg/mL (≈ 130 µM).

As for `CCCC(=O)Nc1cc2c3c(c1)CCN3C(=O)CC2`, the kinetic solubility is above 38.7 µg/mL.

Compound `NC(N)=O` showed a solubility (kinetic) above 9 µg/mL.

`CC1CN(C)C(C)C/C1=N/Oc1ccccc1[N+](=O)[O-].Cl` (configuration not stated) registered a solubility (kinetic) of 46.2 µg/mL.

For `CCOC(=O)c1sc(NC(=O)c2sc(C)nc2C)nc1C`, the kinetic solubility was found to be 8.7 µg/mL (≈ 26.7 µM).

`O=C(Nc1nc2c(Cl)cccc2s1)C1CC1` yielded a solubility (kinetic) of 1.3 µg/mL (≈ 5.14 µM).

Compound `Cc1cc2oc(=O)cc(CN(C)Cc3cccc(F)c3)c2cc1C` yielded a kinetic solubility of 1.2 µg/mL (≈ 3.69 µM).

Compound `O=C(NC12CC3CC(CC(C3)C1)C2)c1cccnc1Cl` displayed a solubility (kinetic) of 22.3 µg/mL (≈ 76.7 µM).

The compound `Cc1noc(-c2ccccc2)c1NC(=O)Nc1ccccc1` came in with a solubility (kinetic) above 44 µg/mL.

Consider `O=C(/C=C/c1ccccc1)N(Cc1cccs1)C1CCS(=O)(=O)C1` (configuration not stated), for which the kinetic solubility is above 54.2 µg/mL.

`CCOc1ncccc1C(=O)Nc1ncc(C)s1` registered a kinetic solubility of 15.5 µg/mL (≈ 58.9 µM).

On to `O=S(=O)(NC1CN2CCC1CC2)c1ccc(Cl)cc1` (configuration not stated), for which the solubility (kinetic) is 42.6 µg/mL (≈ 142 µM).

On to `CCOC(=O)COc1nc(-c2ccco2)cc(-c2ccco2)c1C#N`, for which the solubility (kinetic) was determined as 2.8 µg/mL (≈ 8.28 µM).

Compound `CC(=O)NC(Cc1ccccc1)C(=O)NC(Cc1ccccc1)C(=O)O` (stereo not drawn) (Ac-Phe-Phe-OH; configuration not given here) yielded a kinetic solubility of 52.4 µg/mL (≈ 148 µM).

As to `O=C1OCC2=C1C(c1ccccc1)CC(=O)N2c1cccc(F)c1` (configuration not stated), the solubility (kinetic) turned out to be 44.3 µg/mL (≈ 137 µM).

`Cc1cccc(Cn2c(-c3ccc[nH]c3=O)nc3ccccc32)c1` returned a solubility (kinetic) of 36.7 µg/mL (≈ 116 µM).

For the compound `COC(=O)c1scc(S(C)(=O)=O)c1-n1cccc1`, the solubility (kinetic) is 35.2 µg/mL (≈ 123 µM).

Consider `O=C1N(c2ccccc2)c2ccccc2C1(O)C(F)(F)F` (configuration not stated), for which the kinetic solubility was above 44 µg/mL.

For the compound `C(=C\c1nc(-c2ccncc2)no1)/c1ccccc1`, the kinetic solubility came to 3.4 µg/mL (≈ 13.6 µM).
